Structures can show the parent of a compound that is named as a salt.
test system: reserpine-induced hypothermia / blood pressure; assay: Quotient ED 50% antidepressive action / ED 20% hypertensive action; type: in vivo, mouse / rat; conditions: hypertensive test i.p.
Text: This is evident from the fact that the quotient defined above differs wtih respect to the comparative compounds. […] This arises, inter alia, from the fact that the hypertensive ED 20 constitutes the denominator of the quotient. It is possible that the unforeseeable selective direction of action is attributable to the special substitution,in accordance with the invention, at the 4-imino group.

For `O=C(N=c1ccn(-c2ccccc2)nc1)c1ccc(Cl)cc1Cl` [Example 20], the “Q (quotient ED 50% antidepressive action/ED 20% hypertensive action)” value was less than 0.11.

Point of comparison: `Cc1cccc(C(=O)N=c2ccn(-c3ccccc3)nc2)c1` [Example 23], “Q (quotient ED 50% antidepressive action/ED 20% hypertensive action)” value 0.98. Against it:
- O=C(N=c1ccn(-c2ccccc2)nc1)c1ccc(Cl)c(Cl)c1 [Example 22] — lower, 0.67
- O=C(N=c1ccn(-c2ccccc2)nc1)c1cccc(C(F)(F)F)c1 [Example 26] — lower, 0.70

same assay, conditions: hypertensive test i.v.

Point of comparison: `CC1(C(=O)N=c2ccn(-c3ccccc3)nc2)CCCCC1` [Example 28], “Q (quotient ED 50% antidepressive action/ED 20% hypertensive action)” value 5.80. Against it:
- CC(=O)N=c1ccn(-c2ccccc2)nc1 [Example 1, 4-acetylimino-1,4-dihydro-1-phenylpyridazine hydrochloride] — lower, 2.09
- CCC(=O)N=c1ccn(-c2ccccc2)nc1 [Example 3, 1,4-dihydro-1-phenyl-4-(propionylimino)-pyridazine hydrochloride] — lower, 1.65
- CC(C)C(=O)N=c1ccn(-c2ccccc2)nc1 [Example 5, 1,4-dihydro-4-isobutyrylimino-1-phenylpyridazine hydrochloride] — lower, 1.82
- O=C(N=c1ccn(-c2ccccc2)nc1)C1CC1 [Example 10, 4-(cyclopropylcarbonyl)-imino-1,4-dihydro-1-phenylpyridazine hydrochloride] — lower, 3.04
- CCOC(=O)N=c1ccn(-c2ccccc2)nc1 [Example 29, 1,4-dihydro-4-(ethoxycarbonyl)-imino-1-phenylpyridazine hydrochloride] — lower, 4.00

test system: blood pressure; assay: Effect on the blood pressure: hypertensive action, pithed rat; type: in vivo, male Sprague-Dawley rats; conditions: Rattus norvegicus, ip; Table 1; i.p. administration; dose based on the base; read-out: ED 20% hypertensive action (dose which increases the blood pressure of the pithed rat by 20%)
Experimental: The measurement of the blood pressure in the carotid artery was carried out by means of Statham transducers. The substance was administered in the jugular vein (as an aqueous solution, 1 ml/kg) or intraperitoneally (as a tragacanth suspension, 2 ml/kg). The ED 20% is determined as the dose which increases the blood pressure by 20%.

Point of comparison: `Cc1cccc(C(=O)N=c2ccn(-c3ccccc3)nc2)c1` [Example 23], ED20 1 mg/kg. Against it:
- O=C(N=c1ccn(-c2ccccc2)nc1)c1ccc(Cl)cc1Cl [Example 20] — higher, > 10 mg/kg
- O=C(N=c1ccn(-c2ccccc2)nc1)c1ccc(Cl)c(Cl)c1 [Example 22] — 4.6-fold higher, 4.64 mg/kg
- O=C(N=c1ccn(-c2ccccc2)nc1)c1cccc(C(F)(F)F)c1 [Example 26] — 4.6-fold higher, 4.64 mg/kg

same assay, conditions: Rattus norvegicus, iv; Table 1; i.v. administration; dose based on the base; read-out: ED 20% hypertensive action (dose which increases the blood pressure of the pithed rat by 20%)

Point of comparison: `CC1(C(=O)N=c2ccn(-c3ccccc3)nc2)CCCCC1` [Example 28], ED20 0.1 mg/kg. Against it:
- CC(=O)N=c1ccn(-c2ccccc2)nc1 [Example 1, 4-acetylimino-1,4-dihydro-1-phenylpyridazine hydrochloride] — 3.2-fold higher, 0.32 mg/kg
- CCC(=O)N=c1ccn(-c2ccccc2)nc1 [Example 3, 1,4-dihydro-1-phenyl-4-(propionylimino)-pyridazine hydrochloride] — 2-fold higher, 0.2 mg/kg
- CC(C)C(=O)N=c1ccn(-c2ccccc2)nc1 [Example 5, 1,4-dihydro-4-isobutyrylimino-1-phenylpyridazine hydrochloride] — 2.1-fold higher, 0.215 mg/kg
- O=C(N=c1ccn(-c2ccccc2)nc1)C1CC1 [Example 10, 4-(cyclopropylcarbonyl)-imino-1,4-dihydro-1-phenylpyridazine hydrochloride] — 4.6-fold higher, 0.464 mg/kg
- CCOC(=O)N=c1ccn(-c2ccccc2)nc1 [Example 29, 1,4-dihydro-4-(ethoxycarbonyl)-imino-1-phenylpyridazine hydrochloride] — 2.1-fold higher, 0.215 mg/kg

same assay, conditions: Table 1; i.p. administration; amezinium = 1.00

`O=C(N=c1ccn(-c2ccccc2)nc1)c1ccc(Cl)cc1Cl` [Example 20] was tested, and the “R.A. (relative activity), hypertensive action” value was less than 0.04.

Point of comparison: `Cc1cccc(C(=O)N=c2ccn(-c3ccccc3)nc2)c1` [Example 23], “R.A. (relative activity), hypertensive action” value 0.37. Against it:
- O=C(N=c1ccn(-c2ccccc2)nc1)c1ccc(Cl)c(Cl)c1 [Example 22] — lower, 0.08
- O=C(N=c1ccn(-c2ccccc2)nc1)c1cccc(C(F)(F)F)c1 [Example 26] — lower, 0.08

same assay, conditions: Table 1; i.v. administration; amezinium = 1.00

Point of comparison: `O=C(N=c1ccn(-c2ccccc2)nc1)C1CC1` [Example 10, 4-(cyclopropylcarbonyl)-imino-1,4-dihydro-1-phenylpyridazine hydrochloride], “R.A. (relative activity), hypertensive action” value 0.11. Against it:
- CC(=O)N=c1ccn(-c2ccccc2)nc1 [Example 1, 4-acetylimino-1,4-dihydro-1-phenylpyridazine hydrochloride] — higher, 0.16
- CCC(=O)N=c1ccn(-c2ccccc2)nc1 [Example 3, 1,4-dihydro-1-phenyl-4-(propionylimino)-pyridazine hydrochloride] — higher, 0.25
- CC(C)C(=O)N=c1ccn(-c2ccccc2)nc1 [Example 5, 1,4-dihydro-4-isobutyrylimino-1-phenylpyridazine hydrochloride] — higher, 0.23
- CC1(C(=O)N=c2ccn(-c3ccccc3)nc2)CCCCC1 [Example 28] — higher, 0.50
- CCOC(=O)N=c1ccn(-c2ccccc2)nc1 [Example 29, 1,4-dihydro-4-(ethoxycarbonyl)-imino-1-phenylpyridazine hydrochloride] — higher, 0.23

test system: reserpine-induced hypothermia; assay: Antidepressive action: reserpine antagonism, inhibition of reserpine-induced hypothermia of the mouse; type: in vivo, male Swiss mice; conditions: 2.15 mg/kg s.c.; 2 hours after administration; ambient 20° to 22° C.; average
Experimental: Antidepressants effect dose-dependent inhibition of this hypotherma. The test substances are administered orally 60 minutes before the administration of reserpine.
The dose which effects 50% inhibition of the reserpine-induced hypothermia is determined, as the ED 50%, from the linear regression between log dose (mg/kg) and relative reduction in hypothermia (Δ%).

With `COC(=O)[C@H]1[C@H]2C[C@@H]3c4[nH]c5cc(OC)ccc5c4CCN3C[C@H]2C[C@@H](OC(=O)c2cc(OC)c(OC)c(OC)c2)[C@@H]1OC` [Reserpine, reference compound] the “reduction of body temperature” value was 3 °C.

same assay, conditions: Mus musculus; Table 1; oral administration 60 min before reserpine; dose based on the base; read-out: ED 50% (dose which inhibits the reserpine-induced hypothermia of the mouse by 50%)

Point of comparison: `CC1(C(=O)N=c2ccn(-c3ccccc3)nc2)CCCCC1` [Example 28], ED50 0.58 mg/kg. Against it:
- CC(=O)N=c1ccn(-c2ccccc2)nc1 [Example 1, 4-acetylimino-1,4-dihydro-1-phenylpyridazine hydrochloride] — within 1.5-fold, 0.67 mg/kg
- CCC(=O)N=c1ccn(-c2ccccc2)nc1 [Example 3, 1,4-dihydro-1-phenyl-4-(propionylimino)-pyridazine hydrochloride] — 1.8-fold lower, 0.33 mg/kg
- CC(C)C(=O)N=c1ccn(-c2ccccc2)nc1 [Example 5, 1,4-dihydro-4-isobutyrylimino-1-phenylpyridazine hydrochloride] — within 1.5-fold, 0.4 mg/kg
- O=C(N=c1ccn(-c2ccccc2)nc1)C1CC1 [Example 10, 4-(cyclopropylcarbonyl)-imino-1,4-dihydro-1-phenylpyridazine hydrochloride] — 2.4-fold higher, 1.41 mg/kg
- O=C(N=c1ccn(-c2ccccc2)nc1)c1ccc(Cl)cc1Cl [Example 20] — 1.9-fold higher, 1.1 mg/kg
- O=C(N=c1ccn(-c2ccccc2)nc1)c1ccc(Cl)c(Cl)c1 [Example 22] — 5.3-fold higher, 3.1 mg/kg
- Cc1cccc(C(=O)N=c2ccn(-c3ccccc3)nc2)c1 [Example 23] — 1.7-fold higher, 0.98 mg/kg
- O=C(N=c1ccn(-c2ccccc2)nc1)c1cccc(C(F)(F)F)c1 [Example 26] — 5.6-fold higher, 3.26 mg/kg
- CCOC(=O)N=c1ccn(-c2ccccc2)nc1 [Example 29, 1,4-dihydro-4-(ethoxycarbonyl)-imino-1-phenylpyridazine hydrochloride] — within 1.5-fold, 0.86 mg/kg

same assay, conditions: Table 1; amezinium = 1.00; oral

Point of comparison: `CC(=O)N=c1ccn(-c2ccccc2)nc1` [Example 1, 4-acetylimino-1,4-dihydro-1-phenylpyridazine hydrochloride], “R.A. (relative activity), reserpine antagonism” value 1.09. Against it:
- CCC(=O)N=c1ccn(-c2ccccc2)nc1 [Example 3, 1,4-dihydro-1-phenyl-4-(propionylimino)-pyridazine hydrochloride] — higher, 2.22
- CC(C)C(=O)N=c1ccn(-c2ccccc2)nc1 [Example 5, 1,4-dihydro-4-isobutyrylimino-1-phenylpyridazine hydrochloride] — higher, 1.83
- O=C(N=c1ccn(-c2ccccc2)nc1)C1CC1 [Example 10, 4-(cyclopropylcarbonyl)-imino-1,4-dihydro-1-phenylpyridazine hydrochloride] — lower, 0.52
- O=C(N=c1ccn(-c2ccccc2)nc1)c1ccc(Cl)cc1Cl [Example 20] — lower, 0.67
- O=C(N=c1ccn(-c2ccccc2)nc1)c1ccc(Cl)c(Cl)c1 [Example 22] — lower, 0.24
- Cc1cccc(C(=O)N=c2ccn(-c3ccccc3)nc2)c1 [Example 23] — lower, 0.74
- O=C(N=c1ccn(-c2ccccc2)nc1)c1cccc(C(F)(F)F)c1 [Example 26] — lower, 0.22
- CC1(C(=O)N=c2ccn(-c3ccccc3)nc2)CCCCC1 [Example 28] — higher, 1.26
- CCOC(=O)N=c1ccn(-c2ccccc2)nc1 [Example 29, 1,4-dihydro-4-(ethoxycarbonyl)-imino-1-phenylpyridazine hydrochloride] — lower, 0.85

Reference: US4820821A, “Novel pyridazinone-imines and their physiologically tolerated addition salts with acids, their preparation and therapeutic agents containing these compounds” (BASF Aktiengesellschaft, priority 1981, dated 1989)
